Data on two molecules can be found in US20200215065A1, “COMPOSITIONS AND METHOD FOR TREATING PULMONARY HYPERTENSION” (THE REGENTS OF THE UNIVERSITY OF COLORADO, a body corporate, priority 2017, published 2020).

Series [1] has as its system hypoxic pulmonary vasoconstriction (HPV) response. The experiment in a line: Acute hypoxic rat model: pulmonary (PAP) and systemic (MAP) arterial pressure after treatment. The class given is in vivo. The protocol: Surgical procedures and hemodynamic measurements: Rats were anesthetized by intramuscular injection with ketamine/xylazine mixture (75 and 6 mg/kg, respectively). The ventral neck was shaved and a 2 cm incision was made in the right ventral neck where the jugular vein and right carotid artery were isolated via blunt dissection. A polyethylene (PE-50) catheter was introduced into the right carotid to measure systemic blood pressure. A polyvinyl (PV-1) catheter was inserted into the jugular vein and threaded through the right atrium, right ventricle, and into the lumen of the main pulmonary artery to obtain pulmonary arterial pressure. Fluid filled catheters were connected to pressure transducers and monitored continuously with the MP150 data acquisition system (BioPAC Systems; Goleta, Calif.). Blood pressures were recorded every two minutes for data analysis.
After completion of catheter placements and instrumentation for hemodynamic measurements, a 1 cm incision was made above the trachea, and the trachea was isolated by blunt dissection. A tracheotomy was performed approximately 4 mm above the carina and an endotracheal tube specially designed for rats was inserted such that the end of the tube was placed roughly 2 mm distal from the carina. This placement allowed the tip of a Microsprayer® attached to the FMJ-250 syringe (Penn-Century; Philadelphia, Pa.) to protrude approximately 1 mm from the trachea tube and deliver aerosolized emulsion to both right and left lung periphery (FIG. 1A).
Testing efficacy of intrapulmonary delivery of ambrisentan: following instrumentation and tracheotomy, anesthetized rats were placed in a specially designed Plexiglas box built to accommodate exteriorized catheters for completion of the study protocol (depicted graphically in FIG. 1B). Baseline PAP and mean systemic arterial pressure (MAP) were recorded. Next, rats were switched from breathing room air to a hypoxic gas mixture for 10 minutes. Acute hypoxia was induced in rats by exposure to 13% O2 (room air/nitrogen dilution; FIG. 1A). […] This first hypoxic challenge was followed by 20 minutes of room air breathing. […] During this period of room air breathing, rats were allowed to recover from hypoxia for 10 minutes prior to treatment administration via the Microsprayera Treatments were delivered as a 100-microliter bolus aerosol immediately following emulsification to avoid potential phase separation. Following treatment, rats remained breathing room air for an additional 10 minutes to allow drug absorption before being exposed to a second 10-minute hypoxic challenge. Following the second hypoxic challenge, rats returned to breathing room air and blood pressures were monitored for 15 minutes before animals were euthanized with intravenous injection of a euthanasia agent.
Intravenous infusion: As a reference to aid in understanding the response of intrapulmonary delivery of ambrisentan, an additional treatment group for intravenous (IV) infusion of ambrisentan was also investigated (5 mg/kg; 0.5 mL saline). […]
This study was conducted to test the use and efficacy of a water-in-fluorocarbon emulsion of this disclosure to encapsulate ambrisentan or sodium nitrite for intrapulmonary drug delivery. An acute hypoxic rat model was used, and pulmonary and systemic arterial pressure were recorded to determine efficacy of the drug delivery system for treatment of the acute hypoxic pulmonary vasoconstrictive response. […]

Series [2] in a line: Solubility of ambrisentan in PBS. The class given is physicochemical. The note with it: pH 7.8, aqueous buffer, pH raised to 7.8. The source says:
The aqueous solution of ambrisentan was then mixed with Krytox and PFOB and emulsified as previously described.

Converted amounts (≈) assume the structure as drawn.

By solubility is commonly meant how much of the substance goes into solution per volume. Consider `COC(c1ccccc1)(c1ccccc1)[C@H](Oc1nc(C)cc(C)n1)C(=O)O` [ambrisentan], for which, in series [1] (in vivo), the “MAP during the second hypoxic challenge” value was “did not further reduce” and the “adverse effects (systemic arterial pressure during acute hypoxia)” value is recorded as “no adverse effects were observed”. Besides, the solubility in series [2] is approximately 100 mg/mL (≈ 264 mM).

As for `O=NO` [sodium nitrite], the “pulmonary arterial pressure compared to the empty emulsion” value in series [1] (acute hypoxia, intrapulmonary emulsion, 0.1 mg/kg) is recorded as “did not significantly change”. In addition, the “adverse effects (systemic arterial pressure during acute hypoxia)” value in series [1] (intrapulmonary emulsion) is reported as “no adverse effects were observed”. For the same molecule, the “mean pulmonary arterial pressure when exposed to acute hypoxia” value in series [1] (intrapulmonary emulsion, high dose 0.5 mg/kg) was “significantly reduced”.
